Test results as given in article PMC9643456, “Matching amino acids membrane preference profile to improve activity of antimicrobial peptides” (Communications Biology, 2022).
Where two headings read alike, the source gives them in different places. Square brackets hold non-standard residues; d marks the D form. Peptide text beside a SMILES is read from it. dBta = N[C@H](Cc1csc2ccccc12)C(=O)O

System: human red blood cells
Assay: Hemolytic activity
Assay type: cell-based
Description: Human red blood cells (Zenbio, North Carolina, USA) and peptides were separately diluted in PBS (blood concentration, 8%). The blood cell and peptide solutions were then mixed in 96-well polyethylene plates (SPL, Gyeonggi-do, Korea) and incubated for 18 h at 37 °C. The final concentration of human red blood cells was 4%, while peptide concentrations were 100 μM, 50 μM, 25 μM, 12.5 μM, 6.25 μM, 3.13 μM, 1.56 μM, and 0.78 μM. After incubation, the plates were centrifuged at 1000 × g for 5 min, and the supernatants were transferred to 96-well polyethylene plates. Hemolysis levels were determined by measuring the absorbance at 540 nm with a SpectraMax plate spectrophotometer (Molecular Devices, California, USA). Control samples were treated with 1% Triton X-100 (for 100% hemolysis) or solution with 0 μM peptide (for 0% hemolysis) and melittin (for positive control). Each experiment was performed in triplicate.

| Structure (SMILES) | Hemolysis percent, 25 μM (red cells of human, 18 h) [%] | Hemolysis percent, 50 μM (red cells of human, 18 h, 50) [%] | Hemolysis percent, 100 μM (red cells of human, 18 h) [%] | Hemolysis percent, 50 μM [%] |
| --- | --- | --- | --- | --- |
| CC[C@@H](C)[C@@H](NC(=O)[C@@H](Cc1c[nH]c2ccccc12)NC(=O)[C@@H](CC(C)C)NC(=O)[C@@H](CC(C)C)NC(=O)[C@H](N)Cc1csc2ccccc12)C(=O)NCC(=O)N[C@H](CC(C)C)C(=O)N[C@H](CCCNC(=N)N)C(=O)N[C@H](CCCCN)C(=O)N[C@H](CCCCN)C(=O)N[C@H](CCCNC(=N)N)C(N)=O [WCopW16] (H-[dBta][dL][dL][dW][dI]G[dL][dR][dK][dK][dR]-NH2) | 2.77 | 5.57 | 10.59 |  |
| CC[C@@H](C)[C@@H](NC(=O)[C@@H](CC(C)C)NC(=O)[C@H](N)Cc1c[nH]c2ccccc12)C(=O)N[C@H](Cc1c[nH]c2ccccc12)C(=O)N[C@@H](C(=O)N[C@H](Cc1ccc(O)cc1)C(=O)N[C@H](CCCNC(=N)N)C(=O)N[C@H](CCCCN)C(=O)N[C@H](CCCCN)C(=O)N[C@H](CCCNC(=N)N)C(N)=O)C(C)C [WCopW27] (H-[dW][dL][dI][dW][dV][dY][dR][dK][dK][dR]-NH2) | 1.82 | 3.95 | 7.43 |  |
| CC[C@@H](C)[C@@H](NC(=O)[C@@H](Cc1c[nH]c2ccccc12)NC(=O)[C@H](NC(=O)[C@@H](CC(C)C)NC(=O)[C@H](N)Cc1c[nH]c2ccccc12)C(C)C)C(=O)N[C@H](Cc1c[nH]c2ccccc12)C(=O)N[C@H](CCCNC(=N)N)C(=O)N[C@H](CCCNC(=N)N)C(=O)N[C@H](CCCCN)C(=O)N[C@H](CCCNC(=N)N)C(N)=O [WCopW28] (H-[dW][dL][dV][dW][dI][dW][dR][dR][dK][dR]-NH2) | 2.33 | 1.97 | 5.26 |  |
| CC[C@@H](C)[C@@H](NC(=O)[C@@H](Cc1c[nH]c2ccccc12)NC(=O)[C@H](NC(=O)[C@@H](CC(C)C)NC(=O)[C@H](N)Cc1c[nH]c2ccccc12)C(C)C)C(=O)N[C@H](Cc1c[nH]c2ccccc12)C(=O)N[C@H](CCC(N)=O)C(=O)N[C@H](CCCNC(=N)N)C(=O)N[C@H](CCCNC(=N)N)C(=O)N[C@H](CCCNC(=N)N)C(N)=O [WCopW30] (H-[dW][dL][dV][dW][dI][dW][dQ][dR][dR][dR]-NH2) | 0.32 | 2.74 | 4.92 |  |
| CC[C@@H](C)[C@@H](NC(=O)[C@@H](Cc1c[nH]c2ccccc12)NC(=O)[C@H](NC(=O)[C@@H](CC(C)C)NC(=O)[C@H](N)Cc1c[nH]c2ccccc12)C(C)C)C(=O)N[C@H](Cc1c[nH]c2ccccc12)C(=O)N[C@H](CCCNC(=N)N)C(=O)N[C@H](CCCNC(=N)N)C(=O)N[C@H](CCC(N)=O)C(=O)N[C@H](CCCNC(=N)N)C(N)=O [WCopW31] (H-[dW][dL][dV][dW][dI][dW][dR][dR][dQ][dR]-NH2) | 0.35 | 1.82 | 6.88 |  |
| CC[C@@H](C)[C@@H](NC(=O)[C@@H](Cc1c[nH]c2ccccc12)NC(=O)[C@H](NC(=O)[C@@H](CC(C)C)NC(=O)[C@H](N)Cc1c[nH]c2ccccc12)C(C)C)C(=O)N[C@H](Cc1ccc(O)cc1)C(=O)N[C@H](CCCNC(=N)N)C(=O)N[C@H](CCCNC(=N)N)C(=O)N[C@H](CCCNC(=N)N)C(N)=O [WCopW33] (H-[dW][dL][dV][dW][dI][dY][dR][dR][dR]-NH2) | 3.49 | 6.35 | 9.93 |  |
| CC[C@@H](C)[C@@H](NC(=O)[C@@H](Cc1c[nH]c2ccccc12)NC(=O)[C@H](NC(=O)[C@@H](CC(C)C)NC(=O)[C@H](N)Cc1c[nH]c2ccccc12)C(C)C)C(=O)N[C@H](Cc1c[nH]c2ccccc12)C(=O)N[C@H](CCCNC(=N)N)C(=O)N[C@H](CCCNC(=N)N)C(=O)N[C@H](CCC(=O)O)C(=O)N[C@H](CCC(N)=O)C(N)=O [WCopW34] (H-[dW][dL][dV][dW][dI][dW][dR][dR][dE][dQ]-NH2) | -0.18 | -0.17 | -0.14 |  |
| CC(C)C[C@@H](NC(=O)[C@H](N)Cc1c[nH]c2ccccc12)C(=O)N[C@@H](C(=O)N[C@H](Cc1c[nH]c2ccccc12)C(=O)N[C@H](CC(=O)O)C(=O)N[C@H](Cc1c[nH]c2ccccc12)C(=O)N[C@H](CCCNC(=N)N)C(=O)N[C@H](CCCNC(=N)N)C(=O)N[C@H](CCCNC(=N)N)C(N)=O)C(C)C [WCopW38] (H-[dW][dL][dV][dW][dD][dW][dR][dR][dR]-NH2) |  | 0.06 ±0.06 |  | 0.06 |
| CC(C)C[C@@H](NC(=O)[C@H](N)Cc1c[nH]c2ccccc12)C(=O)N[C@@H](C(=O)N[C@H](Cc1c[nH]c2ccccc12)C(=O)N[C@H](CO)C(=O)N[C@H](Cc1c[nH]c2ccccc12)C(=O)N[C@H](CCCNC(=N)N)C(=O)N[C@H](CCCNC(=N)N)C(=O)N[C@H](CCCNC(=N)N)C(N)=O)C(C)C [WCopW39] (H-[dW][dL][dV][dW][dS][dW][dR][dR][dR]-NH2) | 0.09 | 0.06 | 0.36 |  |
| CC(C)[C@@H](NC(=O)[C@H](N)Cc1c[nH]c2ccccc12)C(=O)N[C@@H](C(=O)N[C@H](Cc1c[nH]c2ccccc12)C(=O)N[C@@H](C(=O)N[C@H](Cc1c[nH]c2ccccc12)C(=O)N[C@H](CCCNC(=N)N)C(=O)N[C@H](CCCNC(=N)N)C(=O)N[C@H](CCCNC(=N)N)C(N)=O)C(C)C)C(C)C [WCopW40] (H-[dW][dV][dV][dW][dV][dW][dR][dR][dR]-NH2) | 0.45 | 0.59 | 2.14 |  |
| CC(C)[C@@H](NC(=O)[C@H](N)Cc1c[nH]c2ccccc12)C(=O)N[C@@H](C(=O)N[C@H](Cc1c[nH]c2ccccc12)C(=O)N[C@@H](C(=O)N[C@@H](C(=O)N[C@H](Cc1c[nH]c2ccccc12)C(=O)N[C@H](CCCNC(=N)N)C(=O)N[C@H](CCCNC(=N)N)C(=O)N[C@H](CCCNC(=N)N)C(N)=O)C(C)C)C(C)C)C(C)C [WCopW42] (H-[dW][dV][dV][dW][dV][dV][dW][dR][dR][dR]-NH2) | 7.14 | 16.66 | 26.66 |  |
| CC(C)C[C@@H](NC(=O)[C@H](N)Cc1c[nH]c2ccccc12)C(=O)N[C@@H](C(=O)N[C@H](Cc1c[nH]c2ccccc12)C(=O)N[C@@H](C(=O)N[C@H](Cc1ccc(O)cc1)C(=O)N[C@H](CC(C)C)C(=O)N[C@H](CCCNC(=N)N)C(=O)N[C@H](CCCCN)C(=O)N[C@H](CCCCN)C(=O)N[C@H](CCCNC(=N)N)C(N)=O)C(C)C)C(C)C [WCopWVY2] (H-[dW][dL][dV][dW][dV][dY][dL][dR][dK][dK][dR]-NH2) | 3.46 | 6.02 | 10.12 |  |
| CC[C@@H](C)[C@@H](NC(=O)[C@@H](Cc1c[nH]c2ccccc12)NC(=O)[C@H](NC(=O)[C@@H](CC(C)C)NC(=O)[C@H](N)Cc1c[nH]c2ccccc12)C(C)C)C(=O)N[C@H](Cc1ccc(O)cc1)C(=O)N[C@@H](C(=O)N[C@H](CCCNC(=N)N)C(=O)N[C@H](CCCCN)C(=O)N[C@H](CCCCN)C(=O)N[C@H](CCCNC(=N)N)C(N)=O)C(C)C [WCopWVY3] (H-[dW][dL][dV][dW][dI][dY][dV][dR][dK][dK][dR]-NH2) | 1.92 | 5.67 | 7.01 |  |
| CC[C@@H](C)[C@@H](NC(=O)[C@@H](Cc1c[nH]c2ccccc12)NC(=O)[C@H](NC(=O)[C@@H](CC(C)C)NC(=O)[C@H](N)Cc1c[nH]c2ccccc12)C(C)C)C(=O)N[C@H](Cc1ccc(O)cc1)C(=O)N[C@H](CCCNC(=N)N)C(=O)N[C@H](CCCCN)C(=O)N[C@H](CCCCN)C(=O)N[C@H](CCCNC(=N)N)C(N)=O [WCopWVY4] (H-[dW][dL][dV][dW][dI][dY][dR][dK][dK][dR]-NH2) | 1.86 | 2.57 | 5.57 |  |
| CC[C@@H](C)[C@@H](NC(=O)[C@@H](Cc1c[nH]c2ccccc12)NC(=O)[C@H](NC(=O)[C@@H](CC(C)C)NC(=O)[C@H](N)Cc1c[nH]c2ccccc12)C(C)C)C(=O)N[C@H](Cc1ccc(O)cc1)C(=O)N[C@H](CC(C)C)C(=O)N[C@H](CCCNC(=N)N)C(=O)N[C@H](CCCCN)C(=O)N[C@H](CCCCN)C(=O)N[C@H](CCCNC(=N)N)C(N)=O [WCopWVY] (H-[dW][dL][dV][dW][dI][dY][dL][dR][dK][dK][dR]-NH2) | 2.47 | 4.51 | 7.25 |  |
| CC[C@@H](C)[C@@H](NC(=O)[C@@H](Cc1c[nH]c2ccccc12)NC(=O)[C@@H](Cc1ccc(O)cc1)NC(=O)[C@@H](CC(C)C)NC(=O)[C@H](N)Cc1c[nH]c2ccccc12)C(=O)N[C@H](CC(C)C)C(=O)N[C@H](CC(C)C)C(=O)N[C@H](CCCNC(=N)N)C(=O)N[C@H](CCCCN)C(=O)N[C@H](CCCCN)C(=O)N[C@H](CCCNC(=N)N)C(N)=O [WCopWYL] (H-[dW][dL][dY][dW][dI][dL][dL][dR][dK][dK][dR]-NH2) | 2.50 | 6.29 | 9.62 |  |
